Data published in article PMC2009657, “Mammalian cell transformation in vitro. Six tests for carcinogenicity” (British Journal of Cancer, 1978).

Test system: tester cells of the transformation assay
Details: not given

Compound	Toxicity in the assay
C=CCl [Vinyl chloride]	No toxicity observe(d

Test system: not given
Details: in vivo; cited from earlier work

Compound	Carcinogenicity, Lit.
COc1ccc(N)cc1 [p-Anisidine]	-
Nc1ccc2ccc3cccc4ccc1c2c34 [3-Aminopyrene]	+
COc1cc(-c2ccc(N)c(OC)c2)ccc1N [3,3'-Dimethoxybenzidine]	+
NN [Hydrazine]	+
C=CCc1ccc2c(c1)OCO2 [Safrole]	+
CCN(CC)N=O [Diethylnitrosamine]	+
CC(=O)Nc1ccc2c(c1)Cc1ccccc1-2 [2-Acetylaminofluorene]	+
c1ccc2cc3ccccc3cc2c1 [Anthracene]	-
CC(=O)Nc1cccc2c1-c1ccccc1C2 [4-Acetylaminofluorene]	-
Clc1ccc(C(c2ccc(Cl)cc2)C(Cl)(Cl)Cl)cc1 [D.D.T.]	-
CCOS(C)(=O)=O [Ethyl methanesulphonate]	+
CN(C)c1ccc(N=Nc2ccccc2)cc1 [4-Dimethylaminoazobenzene]	+
Nc1ccc(Cc2ccc(N)c(Cl)c2)cc1Cl	+
Nc1ccc(-c2ccc(N)cc2)cc1 [Benzidine]	+
Nc1ccccc1 [Aniline]	-
c1ccc2ccccc2c1 [Naphthalene]	-
O=C1c2ccccc2C(=O)c2ccccc21 [Anthraquinone]	-
Nc1ccc2ccccc2c1S(=O)(=O)O [2-Aminonaphthalene-1-sulphonic acid]	-
NC1CCCCC1 [Cyclohexylamine]	-
Croton oil	+

Compound	Carcinogenicity, Lit.
c1cc2cccc3c4cccc5cccc(c(c1)c23)c54 [Perylene]	-
Cc1cc(-c2ccc(N)c(C)c2)ccc1N [3,3'-Dimethylbenzidine]	+
O=S1(=O)CCCCO1 [Butanesultone]	+
Nc1ccc2c(c1)Cc1cc(N)ccc1-2 [2,7-Diaminofluorene]	+
Nc1ccc(-c2ccccc2)cc1 [4-Aminobiphenyl]	+
C1CCC(NC2CCCCC2)CC1 [Dicyclohexylamine]	-
O=[N+]([O-])c1ccccc1-c1ccccc1 [2-Nitrobiphenyl]	+
Morgan's base	+
O=P1(N(CCCl)CCCl)NCCCO1 (stereo not shown) [Cyclophosphamide]	+
Nc1ccc(N=Nc2ccccc2)cc1 [4-Aminoazobenzene]	+
c1ccc2cc(Nc3ccc(Nc4ccc5ccccc5c4)cc3)ccc2c1 [N,N'-Bis(2-naphthyl)-p-phenylenediamine]	-
Nc1ccc2c(ccc3c4ccccc4ccc23)c1 [2-Aminochrysene]	+
c1ccc2cc3c(ccc4ccccc43)cc2c1 [1,2-Benzanthracene]	+
O=C(O)c1ccccc1 [Benzoic acid]	-
ClC1=C(Cl)[C@]2(Cl)[C@@H]3[C@@H]4C[C@@H]([C@H]5O[C@@H]45)[C@@H]3[C@@]1(Cl)C2(Cl)Cl [Dieldrin]	-
Cycasin acetate	+
Nc1ccc(-c2ccc(N)c(Cl)c2)cc1Cl [3,3'-Dichlorobenzidine]	+
Nc1ccccc1C(=O)O [Anthranilic acid]	-
c1ccc2c(c1)cc1ccc3cc4ccccc4c4ccc2c1c34 [3,4,9,10-Dibenzpyrene]	+
CC/C(=C(/CC)c1ccc(O)cc1)c1ccc(O)cc1 [Diethylstilboestrol]	+

Compound	Carcinogenicity, Lit.
c1ccc(Nc2ccc3ccccc3c2)cc1 [N-phenyl-2-naphthylamine]	-
Nc1ccccc1-c1ccccc1 [2-Aminobiphenyl]	+
Cc1c2ccccc2c(C)c2ccccc12 [9,10-Dimeuthylanthracene]	+
Nc1ccc2ccccc2c1 [2-Naphthylamine]	+
O=[N+]([O-])c1ccc(F)c([N+](=O)[O-])c1 [2,4-Dinitrofluorobenzene]	+
Oc1cccc2ccccc12 [1-Naphthol]	-
c1ccc2c(c1)cc1ccc3cccc4ccc2c1c34 [3,4-Benzpyrene]	+
CC(C(O)c1ccccc1)N(C)N=O (stereo not shown) [N-Nitrosoephedrine]	+
ClCOCCl [Bis(Chloromethyl)ether]	+
CN(C)P(=O)(N(C)C)N(C)C [Hexamethylphosphoramide]	+
Cc1ccc2cc3c(ccc4ccccc43)c3c2c1CC3 [20-Methylcholanthrene]	+
c1ccc(-c2ccccc2)cc1 [Biphenyl]	-
O=C(O)CCCc1ccc(N(CCCl)CCCl)cc1 [Chlorambucil]	+
O=C(O)COc1ccc(Cl)cc1Cl [2,4-Dichlorophenoxyacetate]	-
O=C1c2ccccc2-c2cccc3cccc1c23 [Benzathrone]	-
c1ccc2[nH]cnc2c1 [Benzimidazole]	-
Cyanocobalamin [Cyanocobalamin (B12)]	-
Cc1ccc(O)c(N=Nc2c(O)cc(S(=O)(=O)O)c3ccccc23)c1 [Calmagite]	-
Nc1cc2c3ccccc3ccc2c2ccccc12 [6-Aminochrysene]	+
c1ccc2c(c1)ccc1cc3ccc4ccccc4c3nc12 [3,4,5,6-Dibenzacridine]	+
